Laboratory results taken from patent EP3538062B1, “ASSOCIATION CONSISTING OF INOSITOL AND ARGININE FOR MAINTAINING HOMEOSTASIS OF THE HAIR AND SCALP” (Unifarco S.p.A., priority 2016, dated 2018).
“And” between values parts separate entries of the source, which are not always exact repeats. Identical values can stand only once.

Assays:
Assay type in all cases: cell-based, human
[1] = system: Cytokeratin 6 (CK6); assay: Immunohistochemical evaluation of cytokeratin 6 in proto-follicle microtissues; conditions: Inositol 0.5%, Inositol 0.25% + L-arginine 0.25%, Cyclosporin A 10 ng/mL; result in words
Experimental: (§1) The reconstituted proto-follicle was obtained by using fibroblast cells and human keratinocytes using the Gravity^PLUS™ method, a system developed by InSphero (InSphero AG, Zurich, Switzerland), which allows the formation of spheroids or micro-tissues of homogeneous size using the hanging drops technology. The micro-tissues were transferred to Gravity^TRAP plates for treatment and control of culture conditions: 37 °C incubator, 5% CO2, suitably saturated atmosphere of the culture medium.
(§2) In order to assess the biological effect of each of the above compositions on the micro-tissue cultures in question, the following parameters were measured: • Quantification of ATP, as a marker of cell viability. • Morphological evaluation during culture of the proto-follicle, by staining with hematoxylin-eosin (H&E). • Immunohistochemical evaluation of Cytokeratin 6 (CK6), wherein CK6 is a keratin type II present in the skin and the hair follicle, which has an important role in the formation of the intermediate filament and is involved in tissue remodeling during stress phenomena.
(§3) In order to observe the short- and long-term effect of the compositions mentioned above, the evaluation of the above parameters was made at 24H (T2) and 120H (T6) after the beginning of therapy.

[2] = system: co-spheroidal culture DPF-ORSK; assay: Morphological evaluation of proto-follicle microtissues by H&E staining; conditions: Inositol 0.5%, Inositol 0.25% + L-arginine 0.25%
Experimental: as §1, §2, §3

[3] = system: type IV collagen (COLIV); assay: Semi-quantitative determination of type IV collagen by immunofluorescence (confocal microscopy); conditions: 120 H; duplicate (one row per replicate); Inositol 0.5%, Inositol + Arginine 0.25% + 0.25%

In the case of `O[C@H]1[C@H](O)[C@@H](O)[C@H](O)[C@@H](O)[C@H]1O` [Inositol], the “follicular CK6 expression / proto-hair structure and coloring” value [1] is reported as “not different from those shown by the samples treated with Cyclosporin A”, the “morphological qualitative evaluation of micro-tissues (H&E)” value ([2]; T2 (24H)) is reported as “more compact lamellar structure” and the “morphological qualitative evaluation of micro-tissues (H&E)” value ([2]; T6 (120H), Cyclosporin A 10 ng/mL) is reported as “more compact lamellar structure”. The “semi-quantitative analysis of COLIV” value [3] was 69 and 94.
